From patent US20090023186A1, “USE OF VALPROIC ACID FOR ENHANCING PRODUCTION OF RECOMBINANT PROTEINS IN MAMMALIAN CELLS” (EXCELLGENE SA, priority 2007, published 2009)

Experiments:
[1] = system: CHO DG44 cells; test: Alternative transgene TNFR-Fc, batch titer by ELISA (Example 4); type: cell-based, Chinese Hamster; conditions: 0.5 mmol/l final VPA, day 5 after transfection
Procedure: 10 million suspension-adapted HEK293E cells were resuspended in 0.5 ml of Ex-Cell 293 HEK 293 serum-free medium with 4 mmol/l L-glutamine (Cat. No. 14571C-[…]; Lot No. 6A0093; SAFC Biosciences, Lenexa, Kans., USA, “Ex-Cell” medium; note: “Ex-Cell” medium-as used herein-refers to a medium comprising 4 mmol/l L-glutamine) in a 50-ml filter tube each (TPP AG, Trasadingen, Switzerland; Cat. No. 87050, Lot 20050174). In a separate set, 10 million suspension-adapted CHO DG44 cells were resuspended in 0.5 ml of ProCHO5 serum-free medium with 4 mmol/[…] hypoxanthine and 0.194 g/l thymidine (BioWhittaker (Lonza), Belgium; Cat. No. BE12-[…]; Lot No. 7MB0040; “ProCHO5” medium; note: “ProCHO5” medium-as used herein-refers to a medium comprising 4 mmol/[…] hypoxanthine and 0.194 g/l thymidine) in a 50-ml filter tube each (TPP AG, Trasadingen, Switzerland; Cat. No. 87050, Lot 20050174). […] In short, Goat Anti-Human IgG (Fc Fragment specific; Jackson ImmunoResearch Laboratories Inc., West Grove, Pa., USA; Code Number 109-006-098; Lot No. 72349) was used for coating the ELISA-plates, and with AP-conjugated goat anti-human gamma chain IgG (Biosource) the synthesized TNFR-Fc was detected. […] Absorption was measured at 405 nm against 490 nm using a microplate reader (SPECTRAmaxTM340; Molecular Devices, Palo Alto, Calif., USA).

[2] = system: HEK293E cells; test: Preferred embodiment: transient IgG expression with p18 and p21 co-transfection, batch titer by ELISA; type: cell-based, Human; conditions: day 14 after transfection
Procedure: 20 million suspension-adapted HEK293E cells were resuspended in 1 ml of Ex-Cell 293 HEK 293 serum-free medium with 4 mmol/l L-glutamine (Cat. No. 14571C-[…]; Lot No. 6A0093; SAFC Biosciences, Lenexa, Kans., USA, “Ex-Cell” medium; note: “Ex-Cell” medium-as used herein-refers to a medium comprising 4 mmol/l L-glutamine) in a 50-ml filter tube each (TPP AG, Trasadingen, Switzerland; Cat. No. 87050, Lot 20050174). Then 50 μg plasmid DNA at a concentration of 1 μg/μl was added in each tube with the following composition […] Plasmid p-LC comprises the genetic information for the production of the light chain of an IgG antibody, plasmid p-HC comprises the genetic information for the production of the heavy chain of an IgG antibody, plasmid p-p18 comprises the genetic information for the protein p18, and plasmid p-p21 comprises the genetic information for the protein p21. The particular vector constructs used in the present invention can also be obtained from the inventors. The inventors can be contacted via e-mail at […]. Moreover, commercial services do exist that produce any desired nucleotide sequence even comprising several kilobase pairs including complete expression cassettes in plasmid backgrounds (e.g., Invitrogen, Carlsbad, USA; Geneart, Germany.) Thus, providing the genetic sequence information of the plasmids should enable one of ordinary skill in the art to order the plasmids of the present invention at one of the commercial services listed. After shortly mixing the DNA with the cells by gentle shaking, 100 μg of 25-kd linear polyethyleneimine (“PEI”; Polysciences, Eppelheim, Germany; [2]) were added at a concentration of 1 μg/μl to each of the tubes. After shortly mixing by gentle shaking, the filter tubes containing the cells together with the DNA and PEI were transferred into an orbital shaker (Kühner Shaker Cabinet ISF-4-W, “Kühner shaker”, Kühner AG, Birsfelden, Switzerland), and the cells were incubated for 3 hours at 37° C. in a 5% CO2 atmosphere under shaking at 180 rpm. After that time, 4 ml of Ex-Cell medium were added to each of the filter tubes. […] No. B5887-1G; Sigma-Aldrich Chemie GmbH, Industriestrasse 25, CH-9471 Buchs SG) was added to the corresponding tubes at the corresponding final concentrations. […] The ELISA was performed as published in prior art. In short, Goat anti-human kappa light chain IgG (Biosource) was used for coating the ELISA-plates, and with AP-conjugated goat anti-human gamma chain IgG (Biosource) the synthesized IgG1 was detected. NPP was used as a substrate for the alkaline phosphatase. Absorption was measured at 405 nm against 490 nm using a microplate reader (SPECTRAmaxTM340; Molecular Devices, Palo Alto, Calif., USA).

## CCCC(CCC)C(=O)O [VPA, valproic acid]
[1]
  Batch titer: 27.7 ± 3.7 mg/L
  Fold increase over control: 1.8 fold
[2]; 3.8 mmol/l VPA, IgG with p18 and p21
  Batch titer: 962 ± 73 mg/L
[2]; 3.8 mmol/l VPA
  Fold increase over control: 13.2 fold
[2]
  batch titers compared to adding sodium butyrate: higher
